Assay: radical trapping test (ABTS radical cations)
Settings: 20 μM, 5 to 120 minutes, FIG. 5
Experimental: The antioxidant 1 (freeze-dried powder of protease degradation product) produced was evaluated for the radical trapping activity against ABTS radical cations (unnatural model radical), according to the spectrophotometric method described in Biol. Pharm. Bull., 29, 766-771 (2006). Specifically, the antioxidant 1 was added to 3 mL of a reaction solution containing ABTS radical cations to be a final concentration of 300 μg/mL, and at the time after 5 minutes, 15 minutes, 30 minutes, 60 minutes and 120 minutes, the residual ratio of the ABTS radical cations was determined. For comparison, a system added with ascorbic acid or arbutin in an amount of 20 μM each in place of the antioxidant 1, and a system added with water in the same amount as that of the antioxidant 1 (control) were tested in the same manner.

Row | Compound | course of the radical residual ratio with the lapse of time
1 | OC[C@H]1O[C@@H](Oc2ccc(O)cc2)[C@H](O)[C@@H](O)[C@@H]1O [arbutin] | did not change after further lapse of time
2 | O=C1O[C@H]([C@@H](O)CO)C(O)=C1O [ascorbic acid] | did not change after further lapse of time
